In the supplement of paper PMC13380429:

Experiments:
HepG2 [1] = assay: drug sensitivity score (DSS) for viability; higher = more toxic; extreme values may be limits of the assay; conditions: 72 h
Calu-3 [2] = assay: as above; conditions: 72 h
Vero E6 [3] = assay: as above; conditions: 72 h
U2OS [4] = assay: as above; conditions: 72 h
Caco-2 [5] = assay: as above; conditions: 72 h
HepG2 [6] = assay: cell viability relative to DMSO; higher = less toxic; conditions: 72 h
Calu-3 [7] = assay: as above; conditions: 72 h
Vero E6 [8] = assay: as above; conditions: 72 h
U2OS [9] = assay: as above; conditions: 72 h
Caco-2 [10] = assay: as above; conditions: 72 h
[11] = test system: A549-ACE2 infected with SARS-CoV-2; assay: cell count relative to DMSO; higher = less toxic; conditions: 24 h
A549-ACE2 [12] = assay: drug-induced phospholipidosis relative to tamoxifen; higher = more phospholipidosis
[13] = test system: A549-ACE2 infected with SARS-CoV-2; assay: SARS-CoV-2 infection rate relative to DMSO; higher = more infection; conditions: 24 h
HepG2 [14] = assay: relative viability EC50 (midpoint between 100% and the lowest measured viability); higher = less toxic; conditions: 72 h
Calu-3 [15] = assay: as above; conditions: 72 h
Vero E6 [16] = assay: as above; conditions: 72 h
U2OS [17] = assay: as above; conditions: 72 h
Caco-2 [18] = assay: as above; conditions: 72 h
A549-ACE2 [19] = assay: phospholipidosis EC50; higher = less potent phospholipidosis inducer
[20] = test system: A549-ACE2 infected with SARS-CoV-2; assay: morphology score (similarity to uninfected cells); higher = more like uninfected cells; conditions: 24 h

CC(CN1c2ccccc2Sc2ccccc21)N(C)C (stereo not drawn) [promethazine]
Conditions	drug sensitivity score	relative viability EC50 [µM]
Caco-2 [5]	0	–
Caco-2 [18]	–	> 10
Calu-3 [2]	0	–
Calu-3 [15]	–	> 10
HepG2 [1]	0.3	–
HepG2 [14]	–	> 10
U2OS [4]	0	–
U2OS [17]	–	> 10
Vero E6 [3]	0.4	–
Vero E6 [16]	–	> 10

Conditions	SARS-CoV-2 infection rate [%]	cell count [%]	cell viability [%]	morphology score	phospholipidosis EC50 [µM]
A549-ACE2 [19], 24 h	–	–	–	–	7.49
A549-ACE2 [19], 48 h	–	–	–	–	9.37
A549-ACE2 [19], 72 h	–	–	–	–	11.1
Caco-2 [10], 1 nM	–	–	99.8	–	–
Caco-2 [10], 10 nM	–	–	99	–	–
Caco-2 [10], 100 nM	–	–	106	–	–
Caco-2 [10], 1000 nM	–	–	107	–	–
Caco-2 [10], 10000 nM	–	–	92.7	–	–
Calu-3 [7], 1 nM	–	–	112	–	–
Calu-3 [7], 10 nM	–	–	103	–	–
Calu-3 [7], 100 nM	–	–	98.6	–	–
Calu-3 [7], 1000 nM	–	–	103	–	–
Calu-3 [7], 10000 nM	–	–	96.1	–	–
HepG2 [6], 1 nM	–	–	119	–	–
HepG2 [6], 10 nM	–	–	96.4	–	–
HepG2 [6], 100 nM	–	–	78.1	–	–
HepG2 [6], 1000 nM	–	–	103	–	–
HepG2 [6], 10000 nM	–	–	83.3	–	–
U2OS [9], 1 nM	–	–	103	–	–
U2OS [9], 10 nM	–	–	108	–	–
U2OS [9], 100 nM	–	–	97.8	–	–
U2OS [9], 1000 nM	–	–	100	–	–
U2OS [9], 10000 nM	–	–	94.9	–	–
Vero E6 [8], 1 nM	–	–	101	–	–
Vero E6 [8], 10 nM	–	–	95.5	–	–
Vero E6 [8], 100 nM	–	–	99.4	–	–
Vero E6 [8], 1000 nM	–	–	102	–	–
Vero E6 [8], 10000 nM	–	–	80.5	–	–
[11], 0.3 µM	–	103	–	–	–
[11], 3 µM	–	112	–	–	–
[11], 10 µM	–	118	–	–	–
[11], 30 µM	–	115	–	–	–
[13], 0.3 µM	93	–	–	–	–
[13], 3 µM	51	–	–	–	–
[13], 10 µM	63	–	–	–	–
[13], 30 µM	11	–	–	–	–
[20], 0.3 µM	–	–	–	0.09	–
[20], 3 µM	–	–	–	0.72	–
[20], 10 µM	–	–	–	0.76	–
[20], 30 µM	–	–	–	0.72	–

drug-induced phospholipidosis [%], A549-ACE2 [12]
Conditions	0.3 µM	0.833333 µM	3.33333 µM	6.66667 µM	10 µM	30 µM
24 h	1.08	0.17	9.69	43.2	62.1	92
48 h	-0.1	0.2	6.54	31.9	55.6	96.7
72 h	1.14	0.443	8.72	23.6	50.4	102

COc1cc(C[C@H]2c3cc(OC)c(OC)cc3CCN2C)c(Oc2cc3c(cc2OC)-c2c(OC)c(OC)cc4c2[C@H](C3)N(C)CC4)cc1OC [thaliblastine]
Conditions	drug sensitivity score	relative viability EC50 [µM]
Caco-2 [5]	0.1	–
Caco-2 [18]	–	> 10
Calu-3 [2]	6.2	–
Calu-3 [15]	–	2.18
HepG2 [1]	1.5	–
U2OS [4]	0.8	–
U2OS [17]	–	> 10
Vero E6 [3]	0	–
Vero E6 [16]	–	> 10

Conditions	SARS-CoV-2 infection rate [%]	cell count [%]	cell viability [%]	morphology score	phospholipidosis EC50 [µM]
A549-ACE2 [19], 24 h	–	–	–	–	1.3
A549-ACE2 [19], 48 h	–	–	–	–	2.7
A549-ACE2 [19], 72 h	–	–	–	–	6.76
Caco-2 [10], 1 nM	–	–	88.3	–	–
Caco-2 [10], 10 nM	–	–	93.6	–	–
Caco-2 [10], 100 nM	–	–	104	–	–
Caco-2 [10], 1000 nM	–	–	102	–	–
Caco-2 [10], 10000 nM	–	–	86	–	–
Calu-3 [7], 1 nM	–	–	102	–	–
Calu-3 [7], 10 nM	–	–	109	–	–
Calu-3 [7], 100 nM	–	–	97.1	–	–
Calu-3 [7], 1000 nM	–	–	90.2	–	–
Calu-3 [7], 10000 nM	–	–	18.2	–	–
HepG2 [6], 1 nM	–	–	92.4	–	–
HepG2 [6], 10 nM	–	–	111	–	–
HepG2 [6], 100 nM	–	–	96.3	–	–
HepG2 [6], 1000 nM	–	–	105	–	–
HepG2 [6], 10000 nM	–	–	62	–	–
U2OS [9], 1 nM	–	–	94.4	–	–
U2OS [9], 10 nM	–	–	93.9	–	–
U2OS [9], 100 nM	–	–	100	–	–
U2OS [9], 1000 nM	–	–	96.6	–	–
U2OS [9], 10000 nM	–	–	83	–	–
Vero E6 [8], 1 nM	–	–	90.6	–	–
Vero E6 [8], 10 nM	–	–	100	–	–
Vero E6 [8], 100 nM	–	–	89.8	–	–
Vero E6 [8], 1000 nM	–	–	102	–	–
Vero E6 [8], 10000 nM	–	–	96.6	–	–
[11], 0.3 µM	–	109	–	–	–
[11], 3 µM	–	120	–	–	–
[11], 10 µM	–	122	–	–	–
[11], 30 µM	–	115	–	–	–
[13], 0.3 µM	95	–	–	–	–
[13], 3 µM	28	–	–	–	–
[13], 10 µM	21	–	–	–	–
[13], 30 µM	34	–	–	–	–
[20], 0.3 µM	–	–	–	0.32	–
[20], 3 µM	–	–	–	0.61	–
[20], 10 µM	–	–	–	0.29	–
[20], 30 µM	–	–	–	-0.02	–

drug-induced phospholipidosis [%], A549-ACE2 [12]
Conditions	0.3 µM	0.833333 µM	3.33333 µM	6.66667 µM	10 µM	30 µM
24 h	9.75	20.6	72.4	86.2	80.5	65.6
48 h	11.1	12.9	77.4	95.4	104	120
72 h	10.4	12.7	67.9	103	105	154

COc1nc(C)cnc1NS(=O)(=O)c1cccnc1-c1ccc(-c2nnco2)cc1 [zibotentan]
Conditions	drug sensitivity score	relative viability EC50 [µM]
Caco-2 [5]	0	–
Caco-2 [18]	–	> 10
Calu-3 [2]	0	–
Calu-3 [15]	–	> 10
HepG2 [1]	0	–
HepG2 [14]	–	> 10
U2OS [4]	0	–
U2OS [17]	–	> 10
Vero E6 [3]	0	–
Vero E6 [16]	–	> 10

cell viability [%]
Conditions	Caco-2 [10]	Calu-3 [7]	HepG2 [6]	U2OS [9]	Vero E6 [8]
1 nM	104	105	99.8	95.7	102
10 nM	95.2	102	98	99.4	96.5
100 nM	94.9	98.9	102	97.7	94.4
1000 nM	101	104	101	103	99.3
10000 nM	94.9	111	107	105	102

c1cc(CN2CCCCC2)cc(OCCCNc2nc3ccccc3s2)c1 [zolantidine]
Conditions	drug sensitivity score	relative viability EC50 [µM]
Caco-2 [5]	0.2	–
Caco-2 [18]	–	> 10
Calu-3 [2]	0.4	–
Calu-3 [15]	–	> 10
HepG2 [1]	0	–
HepG2 [14]	–	> 10
U2OS [4]	0	–
U2OS [17]	–	> 10
Vero E6 [3]	0	–
Vero E6 [16]	–	> 10

Conditions	SARS-CoV-2 infection rate [%]	cell count [%]	cell viability [%]	morphology score	phospholipidosis EC50 [µM]
A549-ACE2 [19], 24 h	–	–	–	–	7.87
A549-ACE2 [19], 48 h	–	–	–	–	9.34
A549-ACE2 [19], 72 h	–	–	–	–	12.4
Caco-2 [10], 1 nM	–	–	104	–	–
Caco-2 [10], 10 nM	–	–	93.4	–	–
Caco-2 [10], 100 nM	–	–	99.7	–	–
Caco-2 [10], 1000 nM	–	–	96.6	–	–
Caco-2 [10], 10000 nM	–	–	86.4	–	–
Calu-3 [7], 1 nM	–	–	89.8	–	–
Calu-3 [7], 10 nM	–	–	88.3	–	–
Calu-3 [7], 100 nM	–	–	108	–	–
Calu-3 [7], 1000 nM	–	–	98.1	–	–
Calu-3 [7], 10000 nM	–	–	84.9	–	–
HepG2 [6], 1 nM	–	–	99.1	–	–
HepG2 [6], 10 nM	–	–	91.8	–	–
HepG2 [6], 100 nM	–	–	97.6	–	–
HepG2 [6], 1000 nM	–	–	102	–	–
HepG2 [6], 10000 nM	–	–	89.5	–	–
U2OS [9], 1 nM	–	–	101	–	–
U2OS [9], 10 nM	–	–	95.9	–	–
U2OS [9], 100 nM	–	–	104	–	–
U2OS [9], 1000 nM	–	–	97.6	–	–
U2OS [9], 10000 nM	–	–	94.6	–	–
Vero E6 [8], 1 nM	–	–	90.2	–	–
Vero E6 [8], 10 nM	–	–	103	–	–
Vero E6 [8], 100 nM	–	–	98.3	–	–
Vero E6 [8], 1000 nM	–	–	102	–	–
Vero E6 [8], 10000 nM	–	–	94.4	–	–
[11], 0.3 µM	–	101	–	–	–
[11], 3 µM	–	118	–	–	–
[11], 10 µM	–	119	–	–	–
[11], 30 µM	–	124	–	–	–
[13], 0.3 µM	98	–	–	–	–
[13], 3 µM	50	–	–	–	–
[13], 10 µM	20	–	–	–	–
[13], 30 µM	12	–	–	–	–
[20], 0.3 µM	–	–	–	-0.12	–
[20], 3 µM	–	–	–	0.76	–
[20], 10 µM	–	–	–	0.9	–
[20], 30 µM	–	–	–	0.62	–

drug-induced phospholipidosis [%], A549-ACE2 [12]
Conditions	0.3 µM	0.833333 µM	3.33333 µM	6.66667 µM	10 µM	30 µM
24 h	3.01	2.56	9.9	36.9	64.3	91.7
48 h	3.2	2.85	4.98	28.7	56.2	97.1
72 h	5.43	2.63	7.7	25.4	50.3	116
